Values of other authors in patent US20100099776A1, “OILY SUSPENSION OF ATOVAQUONE” (RANBAXY LABORATORIES LIMITED, priority 2008, published 2010).

Details: single oral dose

O=C1C(O)=C([C@H]2CC[C@H](c3ccc(Cl)cc3)CC2)C(=O)c2ccccc21 [Atovaquone, 244-(4-chlorophenyl)cyclohexyl′-3-hydroxy-1,4-naphthoquinone]
dose above which absorption is dose-limited: above 750 mg
increase of absorption by the presence of fatty food (with fatty food): about three-fold
